According to US20200290950A1, “ALKAMIDE COMPOUNDS AND USES THEREOF” (NORTH CAROLINA STATE UNIVERSITY, priority 2017, published 2020):

Tests used:
[1] = molecular target: cannabinoid type 2 receptor (CB2) (Homo sapiens, UniProt P34972); details: Raduner et al., 2006; cited from earlier work
[2] = test system: RAW 264.7 cells; details: LPS-stimulated RAW 264.7 cells, literature; cited from earlier work
[3] = test system: RBL-2H3 cells; assay: Fluo-4 calcium assay, RBL-2H3 cells (Example 1); format: cell-based, rat; details: RBL-2H3 cells, 1 μM A23187, microscopy, n=5 fields
Procedure: FIGS. 3A-3H. A15 inhibits calcium influx in RBL-2H3 cells and BMMCs. RBL-2H3 cells (FIGS. 3A-3D) and BMMCs (FIGS. 3E-3H) were plated and incubated overnight prior to treatments. For DNP-BSA treatments, overnight incubation also included 1 μg/mL IgE anti-DNP. Prior to stimulation, cells were washed and loaded with the fluorescent, calcium-sensitive dye fluo-4 AM using the Fluo-4 AM Direct™ Calcium Assay Kit and fluorescence was measured on a microplate reader. Calcium influx was triggered in all experiments using either 1 μM A23187 or 50 ng/mL DNP-BSA, as indicated. Bar graphs represent the means±SEM of the Δ in RFU's at 1 min post-A23187- or DNP-BSA-stimulation from 3 independent experiments (FIGS. 3B, 3D, 3F, 3H). Statistical analysis was performed using a one-way ANOVA with Dunnett's post-hoc test, *p<0.05, **p<0.01, ***p<0.001.
FIG. 9. A15 inhibits calcium influx in RBL-2H3 cells. Prior to stimulation, cells were washed and loaded with the fluorescent, calcium-sensitive dye fluo-4 AM using the Fluo-4 AM Direct™ Calcium Assay Kit. Cells were treated with 100 μM A15 (D, E, F), 0.25% ethanol only (vehicle) (A, B, C), 1 μM A23187 (G, H, I), and 100 μM A15 in combination with 1 μM A23187 (J, K, L) as indicated. Images were acquired at 30, 60, and 120 seconds, post-stimulation. Images are representative of several experiments.
RBL-2H3, BMMC, RAW 264.7, or Jurkat cells were plated in clear-bottom, black, 96-well plates (BioExpress, Kaysville, Utah) and incubated overnight with media only or media containing IgE anti-DNP. Cells were loaded with the calcium-sensitive dye fluo-4 AM using the Fluo-4 Direct™ Calcium Assay Kit (Thermo Fisher Scientific) according to the manufacturer's instructions by incubating at 37° C. for 30 min followed by 30 min at room temperature. Prior to stimulation, baseline fluorescent readings were measured from triplicate wells in 5 s intervals for 1 min using a Synergy HT microplate reader with 485/20 nm excitation and 528/20 nm emission filters. Cells were then treated with either 1 μM A23187 or 50 ng/mL DNP-BSA prepared in calcium- and magnesium-containing or calcium- and magnesium-free HBSS with 20 mM HEPES, and fluorescence was measured in 10 s intervals for 2 min. The final concentration of ethanol was 0.25% in these assays. The average baseline fluorescence of each well was subtracted from the stimulated fluorescent values to calculate the change (Δ) in RFU's and graphed as shown.
Cells loaded with fluo-4 were treated and observed with an Axioskop 2 microscope (Zeiss, Oberkochen, Germany) using a fluorescent illuminator HXP-120 light source and images were acquired at 30, 60, or 120 sec after stimulation with a AxioCam MRc5 camera (Zeiss) and AxioVision software (Zeiss).

[4] = test system: RBL-2H3 cells; assay: β-Hexosaminidase release assay (Example 3); format: cell-based, rat
Procedure: FIGS. 21A-21D. The inhibition of degranulation is dependent on the length of the alkamide fatty acid chain. RBL-2H3 cells were plated overnight, stimulated with 1 μM A23187 (FIG. 21A) or 5 ng/mL DNP-BSA (FIG. 21B) for 1 h in the absence or presence of each compound. Graphs display the mean percent β-hex release. Data are presented as the mean of 4 experiments. Percent inhibition of degranulation of A23187 (FIG. 21C) or DNP-BSA (FIG. 21D) using data from A and B, respectively. *P<0.05, **P<0.01, ***P<0.001, one-way ANOVA with Dunnett's post hoc test compared to vehicle (A, B) or A15 (C, D).
RBL-2H3 cells (1.0×10^5 cells) were incubated with or without 0.1 μg/mL of IgE-DNP overnight in a 96 well plate at 37° C. with 5% CO2. The cells were washed with Tyrode's buffer and assayed with few modifications (Kuehn, Radinger, & Gilfillan, 2010). Briefly, IgE-DNP sensitized cells were stimulated 1 hour with 5 ng/mL of DNP-BSA in the absence or presence of each compound and incubated at 37° C. with 5% CO2. For experiments using only A23187 as the stimulant, cells were washed with Tyrode's buffer and stimulated 1 hour with 1 μM A23187 in the absence or presence of each compound and incubated at 37° C. with 5% CO2. The stimulated cells were centrifuged at 1200×g for 5 minutes. The supernatant or cell lysate (30 μL) was incubated with 3.4 mg/mL of p-NAG (10 μL) for 1 hour at 37° C. The reaction was terminated by addition of 0.2 M sodium carbonate (pH 10) and the absorbance was read at OD405 nm on a BioTek Synergy HT microplate reader. The total 3-hexosaminidase released from the cell was calculated as the difference between the OD of the supernatant and blank plus the difference between the OD of the lysate and blank. The percent β-hexosaminidase released from the cell was calculated as the difference between the OD of the supernatant and blank divided by the total β-hexosaminidase released from the cell multiplied by 100: ODsupernatant−ODblank/[(ODlysate−ODblank)+(ODsupernatant−ODblank)]*100.

[5] = test system: RBL-2H3 cells; assay: Calcium assay, Fluo-4 (Example 3); format: cell-based, rat
Procedure: FIGS. 22A-22D. The alkamide fatty acid is necessary for inhibition of calcium influx. RBL-2H3 cells were plated overnight, incubated with Fluo-4 AM for 1 h, stimulated by 1 μM A23187 (FIG. 22A) or 5 ng/mL DNP-BSA (FIG. 22B) in the absence or presence of each alkamide, and fluorescence was read for 2 mins every 5 secs. Data are presented as the mean change in RFU of 4 experiments. Percent inhibition of calcium influx was calculated for A23187 (FIG. 22C) and DNP-BSA (FIG. 22D) stimulated cells at 2 mins. *P<0.05, **P<0.01, and ***P<0.001 one-way ANOVA with Dunnett's post hoc test compared to A15.
RBL-2H3 cells (1.0×10^5 cells) were incubated overnight in a 96 well black-wall clear bottom plate with or without IgE-DNP (0.1 μg/mL) at 37° C. with 5% CO2. The assay was performed using the Fluo-4 Direct™ Calcium Assay Kit according to the manufacturer's instruction. Briefly, cells were incubated with the Fluo-4 Direct calcium reagent loading solution for 30 minutes at 37° C. with 5% CO2 then 30 mins at room temperature. Prior to stimulation, the well baseline fluorescence was measured every 5 seconds over 1 minute using a BioTek Synergy HT microplate reader with 485/20 nm excitation and 528/20 nm emission filters. Cells were stimulated with 1 μM A23187 or 5 ng/mL DNP (IgE-DNP) in the absence or presence of each compound, and the fluorescence was measured every 5 seconds over 2 minutes. The change in fluorescence (ΔRT) was calculated as the sample fluorescence minus the baseline fluorescence for each well.

[6] = test system: RBL-2H3 cells; assay: TNF-α ELISA, 18 hrs (Example 3); format: cell-based, rat; details: 1 μM A23187, 18 hours
Procedure: FIGS. 25A-25B. […] RBL-2H3 cells were plated overnight and stimulated with 1 μM A23187 in the absence or presence of each alkamide for 18 h. Culture supernatants were analyzed for TNF-α levels by ELISA and experiments were performed in triplicate (FIG. 25A). Percent inhibition of TNF-α secretion for each alkamide listed in FIG. 25B. *P<0.05, **P<0.01, ***P<0.001, one-way ANOVA with Dunnett's post hoc test compared to vehicle (FIG. 25A) or A15 (FIG. 25B).
RBL-2H3 cells (1.0×10^5 cells) were incubated overnight in a 24 well plate at 37° C. with 5% CO2. Cells were washed with 1×PBS and stimulated with 1 μM A23187 for 18 hrs in the absence or presence of each compound. The cells were centrifuged (1200×g, 5 min) and the supernatants were collected. The concentration of TNF-α in the supernatants were determined using the TNF-α ELISA kit.

Chain of cannabinoid type 2 receptor (CB2) (P34972 whole entry, species assumed): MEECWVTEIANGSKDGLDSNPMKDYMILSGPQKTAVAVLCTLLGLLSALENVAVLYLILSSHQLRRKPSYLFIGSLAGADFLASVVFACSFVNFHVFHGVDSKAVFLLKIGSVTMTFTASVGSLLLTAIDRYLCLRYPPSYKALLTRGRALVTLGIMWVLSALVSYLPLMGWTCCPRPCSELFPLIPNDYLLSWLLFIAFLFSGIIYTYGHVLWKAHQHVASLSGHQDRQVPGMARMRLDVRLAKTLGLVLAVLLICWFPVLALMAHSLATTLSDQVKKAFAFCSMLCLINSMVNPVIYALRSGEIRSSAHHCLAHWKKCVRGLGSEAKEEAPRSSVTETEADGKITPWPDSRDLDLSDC

## C/C=C\C=C/CC/C=C/C=C/C(=O)NCC(C)C [A11a/b, dodeca-2E,4E,8Z,10Z(E)-tetraenoic acid isobutylamide, reference compound]
[1]
  binding to CB2: shown to bind
[2]
  TNF-α production: reduced TNF-α production

## CNc1ccc2oc(C[C@H]3O[C@@]4(CC[C@H]3C)O[C@H]([C@H](C)C(=O)c3ccc[nH]3)[C@H](C)C[C@H]4C)nc2c1C(=O)O [A23187, reference compound]
[3]
  increase in fluorescence (pixel intensity): 158.4%

## CCN(CC)CCCCCCCCOC(=O)c1cc(OC)c(OC)c(OC)c1 [TMB-8, 3,4,5-trimethoxybenzoic acid 8-(diethylamino) octyl ester, reference compound]
[4]; 5 ng/mL DNP-BSA, 1 h
  β-hex release: also inhibited
[4]; 1 μM A23187, 1 h
  β-hex release: significantly inhibited β-hex release
[5]; 5 ng/mL DNP-BSA
  calcium response (Fluo-4 fluorescence over 2 min): decreased rate of calcium entering the cytosol
[5]; 1 μM A23187
  calcium response (Fluo-4 fluorescence over 2 min): decreased rate of calcium entering the cytosol

## CCCCCCCCCCCC(=O)NCC(C)C [YM5-27, N-Isobutyldodecanamide]
[4]; 5 ng/mL DNP-BSA, 1 hour
  percent inhibition of degranulation: 33%
[4]; 1 μM A23187, 1 hour
  percent inhibition of degranulation: 40%
[5]; 5 ng/mL DNP-BSA, at 2 minutes
  percent inhibition of calcium influx: 65%
[5]; 1 μM A23187, at 2 minutes
  percent inhibition of calcium influx: 79%
[6]
  percent inhibition of TNF-α secretion: 76%
[2]
  TNF-α production: best inhibitors

## CCCCCC(=O)NCC(C)C [YM5-47, N-Isobutylhexanamide]
[4]; 5 ng/mL DNP-BSA, 1 hour
  percent inhibition of degranulation: 36%
[4]; 1 μM A23187, 1 hour
  percent inhibition of degranulation: 51%
[5]; 5 ng/mL DNP-BSA, at 2 minutes
  percent inhibition of calcium influx: 38%
[6]
  percent inhibition of TNF-α secretion: 47%

## CCCCCCCCCC(=O)NCC(C)C [YM8-86, N-Isobutyldecanamide]
[4]; 5 ng/mL DNP-BSA, 1 hour
  percent inhibition of degranulation: 46%
[4]; 1 μM A23187, 1 hour
  percent inhibition of degranulation: 59%
[5]; 5 ng/mL DNP-BSA, at 2 minutes
  percent inhibition of calcium influx: 40%
[5]; 1 μM A23187, at 2 minutes
  percent inhibition of calcium influx: 92%
[6]
  percent inhibition of TNF-α secretion: 50%

## CCCC(=O)NCC(C)C [YM8-87, N-Isobutylbutyramide]
[4]; 5 ng/mL DNP-BSA, 1 hour
  percent inhibition of degranulation: 12%
[4]; 1 μM A23187, 1 hour
  percent inhibition of degranulation: 11%
[5]; A23187 and DNP-BSA stimulation
  rank as inhibitor of calcium influx: least effective inhibitor of calcium influx
